Reference: PubChem BioAssay AID256 (DTP/NCI, 2004)
Values joined by “and” are separate entries in the source; they are usually repeats but may differ in a detail not shown here. Identical values can stand only once. Inconclusive results and toxic doses are left out.

System: CD2F1 mice, L1210 leukemia ip, survival T/C
Test: NCI In Vivo Anticancer Drug Screen. Data for tumor model L1210 Leukemia (intraperitoneal) in CD2F1 (CDF1) mice
Details: endpoint: mean survival time, higher = longer survival
How it was run: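 Antitumor effect is scored in animals hosting a serially transplanted tumor. Values compare compound-dosed animals against vehicle-only controls as a simple quotient.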

[1] = dose: 200.0 mg/kg/injection, schedule: Q01DX009 (ip), vehicle: saline with Tween-80
[2] = dose: 100.0 mg/kg/injection, schedule: Q04DX003 (ip), vehicle: saline
[3] = dose: 200.0 mg/kg/injection, schedule: Q04DX003 (ip), vehicle: saline
[4] = dose: 100.0 mg/kg/injection, schedule: Q04DX003 (ip), vehicle: saline with Tween-80
[5] = dose: 200.0 mg/kg/injection, schedule: Q04DX003 (ip), vehicle: saline with Tween-80
[6] = dose: 400.0 mg/kg/injection, schedule: Q04DX003 (ip), vehicle: saline with Tween-80
[7] = dose: 100.0 mg/kg/injection, schedule: Q01DX009 (ip), vehicle: saline with Tween-80
[8] = dose: 400.0 mg/kg/injection, schedule: Q01DX009 (ip), vehicle: saline with Tween-80

Nc1nc(F)nc2c1ncn2C1OC(CO)C(O)C1O (stereo unspecified)
T/C (dose: 100.0 mg/kg/injection, schedule: Q01DX001 (ip), vehicle: other): 105 % of control
T/C (dose: 111.0 mg/kg/injection, schedule: Q01DX009 (ip), vehicle: saline with Tween-80): 187 % of control
T/C (dose: 133.0 mg/kg/injection, schedule: Q01DX005 (ip), vehicle: saline with Tween-80): 154 % of control
T/C (dose: 133.0 mg/kg/injection, schedule: Q01DX009 (ip), vehicle: saline with Tween-80): 227 % of control and 276 % of control
T/C (dose: 156.0 mg/kg/injection, schedule: Q01DX009 (ip), vehicle: saline with Tween-80): 393 % of control
T/C (dose: 178.0 mg/kg/injection, schedule: Q01DX005 (ip), vehicle: saline with Tween-80): 179 % of control
T/C (dose: 178.0 mg/kg/injection, schedule: Q01DX009 (ip), vehicle: saline with Tween-80): 473 % of control
T/C (dose: 200.0 mg/kg/injection, schedule: Q01DX001 (ip), vehicle: other): 109 % of control
T/C [1]: 563 % of control
T/C (dose: 222.0 mg/kg/injection, schedule: Q01DX009 (ip), vehicle: saline with Tween-80): 333 % of control
T/C (dose: 400.0 mg/kg/injection, schedule: Q01DX001 (ip), vehicle: other): 105 % of control

O=[N+]([O-])c1ccc(Cl)c(P(=O)(O)c2cc([N+](=O)[O-])ccc2Cl)c1
T/C (dose: 50.0 mg/kg/injection, schedule: Q04DX003 (ip), vehicle: saline): 100 % of control
T/C [2]: 101 % of control
T/C [3]: 100 % of control

CCOC(=O)c1c[nH]c2cc(OC)ccc2c1=O
T/C [4]: 91 % of control
T/C [5]: 102 % of control
T/C [6]: 100 % of control

CC1=C(CNc2ncnc3nc[nH]c23)CC=CC1
T/C [7]: 88 % of control
T/C [4]: 95 % of control
T/C [1]: 92 % of control
T/C [8]: 88 % of control
T/C [6]: 98 % of control

O=C(Nc1ccccc1F)c1ccccc1Cl
T/C (dose: 100.0 mg/kg/injection, schedule: Q01DX009 (ip), vehicle: saline): 98 % of control
T/C [2]: 106 % of control
T/C (dose: 200.0 mg/kg/injection, schedule: Q01DX009 (ip), vehicle: saline): 92 % of control
T/C [3]: 104 % of control
T/C (dose: 400.0 mg/kg/injection, schedule: Q01DX009 (ip), vehicle: saline): 98 % of control
T/C (dose: 400.0 mg/kg/injection, schedule: Q04DX003 (ip), vehicle: saline): 97 % of control

O=C(Nc1cccc(C(F)(F)F)c1)c1ccc(Cl)cc1
T/C (dose: 100.0 mg/kg/injection, schedule: Q04DX002 (ip), vehicle: saline with Tween-80): 97 % of control
T/C (dose: 200.0 mg/kg/injection, schedule: Q04DX002 (ip), vehicle: saline with Tween-80): 105 % of control
T/C (dose: 400.0 mg/kg/injection, schedule: Q04DX002 (ip), vehicle: saline with Tween-80): 105 % of control

Nc1nc(N)c2cc(CCc3ccccc3)ccc2n1
T/C (dose: 6.25 mg/kg/injection, schedule: Q01DX009 (ip), vehicle: saline with Tween-80): 105 % of control
T/C (dose: 6.25 mg/kg/injection, schedule: Q04DX003 (ip), vehicle: saline with Tween-80): 98 % of control
T/C (dose: 12.5 mg/kg/injection, schedule: Q01DX009 (ip), vehicle: saline with Tween-80): 100 % of control
T/C (dose: 12.5 mg/kg/injection, schedule: Q04DX003 (ip), vehicle: saline with Tween-80): 98 % of control
T/C (dose: 25.0 mg/kg/injection, schedule: Q01DX009 (ip), vehicle: saline with Tween-80): 104 % of control
T/C (dose: 25.0 mg/kg/injection, schedule: Q04DX003 (ip), vehicle: saline with Tween-80): 98 % of control
T/C (dose: 50.0 mg/kg/injection, schedule: Q01DX009 (ip), vehicle: Klucel (hydroxypropylcellulose) (HPC)): 106 % of control

Nc1ccc(-c2nc(=S)c3cn[nH]c3[nH]2)cc1
T/C (dose: 12.5 mg/kg/injection, schedule: Q01DX005 (ip), vehicle: other): 92 % of control
T/C (dose: 25.0 mg/kg/injection, schedule: Q01DX005 (ip), vehicle: other): 94 % of control
T/C (dose: 50.0 mg/kg/injection, schedule: Q01DX005 (ip), vehicle: other): 91 % of control
T/C (dose: 100.0 mg/kg/injection, schedule: Q01DX005 (ip), vehicle: other): 91 % of control
T/C (dose: 200.0 mg/kg/injection, schedule: Q01DX005 (ip), vehicle: other): 95 % of control

CC(C)(C)NC(=O)CCC(CC(=O)NC(C)(C)C)OCc1ccccc1 (stereo unspecified)
T/C (dose: 50.0 mg/kg/injection, schedule: Q01DX009 (ip), vehicle: saline with Tween-80): 100 % of control
T/C [7]: 104 % of control
T/C [4]: 101 % of control
T/C [1]: 102 % of control
T/C [5]: 106 % of control
T/C [8]: 93 % of control
T/C [6]: 93 % of control

OCc1cn2c(c1CO)CCC2
T/C (dose: 12.5 mg/kg/injection, schedule: Q01DX009 (ip), vehicle: water): 105 % of control
T/C (dose: 22.0 mg/kg/injection, schedule: Q01DX009 (ip), vehicle: other): 108 % of control
T/C (dose: 25.0 mg/kg/injection, schedule: Q01DX009 (ip), vehicle: water): 113 % of control
T/C (dose: 33.0 mg/kg/injection, schedule: Q01DX009 (ip), vehicle: other): 113 % of control
T/C (dose: 50.0 mg/kg/injection, schedule: Q01DX009 (ip), vehicle: other): 123 % of control
T/C (dose: 75.0 mg/kg/injection, schedule: Q01DX009 (ip), vehicle: other): 105 % of control
